Experimental data: US9573907B2, “2, 4-pyrimidine derivatives and use thereof” (SNU R&DB FOUNDATION, priority 2009, dated 2017)
pIC50: −log10 of the molar value.

Assays:
[1] = tested on: NZB/W F1 mouse; assay: Survival rate of a lupus animal model; type: in vivo; conditions: 30 mg/kg intraperitoneally once a day, 25-week aged male mice
Protocol: An NZB/W F1 mouse is a lupus animal model showing a voluntary lupus symptom. On the animal model, the effect of 2,4-pyrimidine derivatives was tested.
Each group included 10, 25-week aged male NZB/W F1 mice. Each group was intraperiotneally administered with a control (5% DMSO solution) or a testing agent (2,4-pyrimidine derivative in a dose of 30 mg/kg) once a day. Except for mice which died by worsening of lupus symptoms, the ratio of surviving mice was analyzed.

[2] = target: interaction of gp96 and AIMP1 (Mus musculus, UniProt P08113); assay: ELISA assay of gp96-AIMP1 interaction; type: binding, murine
Protocol: FIGS. 1 to 9 represent suppression of cell surface gp96 by GPM1 reduces DC maturation and B220^+ population in gp96tm transgenic mice. (FIG. 1) Chemical structure of GPM1 (Formula 2) and negative control (NC1, Formula 16) used in this study. (FIG. 2) The dose-dependent effect of GPM1 or NC1 on the AIMP1-gp96 interaction using ELISA method as described. The indicated concentrations of the two compounds and biotin-conjugated murine gp96 were added to AIMP1 coated on the surface of microtiter wells, and gp96 bound to AIMP1 was detected with strepavidin-conjugated peroxidase. (FIG. 3) The binding of GPM1 to gp96 was examined by surface plasmon resonance (SPR). GPM1 at the indicated concentrations was injected to immobilized gp96 and the binding was measured using Biacore 3000. The response data were processed using data from a reference surface and buffer injections. Each concentration was tested in triplicate. (FIG. 4) RAW24.7 cells were treated with 10 μM GPM1 for 24 h. Cell lysates were immunoprecipitated with control IgG or anti-gp96 antibody and the immunoprecipitated proteins were immunoblotted with anti-KDELR1, antiAIMP1 and gp96 antibodies. WCL means whole cell lysate. (FIG. 5) Splenocytes isolated from C57BL/6 mice were treated with vehicle (5% DMSO in PBS), GPM1, or NC1 (10 μM, 24 h), stained for cell surface gp96, and followed by flow cytometry. (FIG. 6) AIMP1^+/+ or AIMP1^−/− mouse splenocytes (2×10^5 cells) were treated with vehicle, GPM1, or NC1 (10 μM, 24 h), fixed, and then co-cultured with WT bone marrow-derived DCs (1×10^4 cells) for 16 h. TNFα secreted from BMDCs was quantified by ELISA. (FIG. 7) Percentage of gp96^+ MHC class II^+ cell population in splenocytes from gp96tm transgenic female mice treated with vehicle (control) (n=9), GPM1 (n=9), and dexamethasone (n=7) at 30 mg/kg. (FIG. 8) Cell surface ICOSL of CD11b^+CD11c^+ (myeloid DCs), CD11b^−CD11c^+ (lymphoid DCs), and CD11b^+CD11c^− (macrophages) cell populations in splenocytes from gp96tm transgenic female mice treated with vehicle (n=9) and GPM1 (n=9) at 30 mg/kg. (FIG. 9) Percentage of B220^+, MHC class II^+, CD4^+, CD8^+, CD4 and CD8 double negative cell populations in splenocytes from gp96tm transgenic female mice treated with vehicle (n=9), GPM1 (n=9), and dexamethasone (n=7) at 30 mg/kg. Student t-test P values comparing GPM1-treated mice with control are indicated.
96-well plates (Maxisorp., F96; Nunc) were coated with 500 ng/well AIMP1 in PBS (pH 7.4). After washing, the remaining sites were blocked with PBS containing 1% BSA for 1 h. Binding of 10 ng/well biotin-conjugated gp96 was performed in Tris buffer (25 mM Tris, 10 mM NaCl and 0.4% Triton X-100). Each of the 6,580 compounds was added to the well at 100 nM and the plates were washed and incubated with HRP conjugated streptavidin in PBS containing 0.1% BSA and 0.1% Tween 20 for 30 min. The plates were washed, and then substrate was added to each well. The absorbance was monitored at 450 nm.
To identify chemicals that can affect membrane translocation of gp96, the present inventors employed the interaction of gp96 with AIMP1 as the screening target. For this screening, the present inventors chose 6,482 chemicals with different pharmacophore representing 150,000 different chemicals deposited in Korea Chemical Bank and identified the compounds that can inhibit the interaction of the two proteins. For the screening, the present inventors set up a modified ELISA method using recombinant AIMP1 and gp96 proteins as described in Experimental methods. Each of the tested compounds gave different effect on the interaction of the two proteins (FIG. 19). And the present inventors have selected 12 compounds that inhibited the interaction more than 95% of the control at 0.1 μM (Table 1). The present inventors obtained 1251 additional compounds derived from these 12 initial hits and tested them again for their activities against the gp96-AIMP1 interaction.

Sequence of interaction of gp96 and AIMP1 (P08113 22-802): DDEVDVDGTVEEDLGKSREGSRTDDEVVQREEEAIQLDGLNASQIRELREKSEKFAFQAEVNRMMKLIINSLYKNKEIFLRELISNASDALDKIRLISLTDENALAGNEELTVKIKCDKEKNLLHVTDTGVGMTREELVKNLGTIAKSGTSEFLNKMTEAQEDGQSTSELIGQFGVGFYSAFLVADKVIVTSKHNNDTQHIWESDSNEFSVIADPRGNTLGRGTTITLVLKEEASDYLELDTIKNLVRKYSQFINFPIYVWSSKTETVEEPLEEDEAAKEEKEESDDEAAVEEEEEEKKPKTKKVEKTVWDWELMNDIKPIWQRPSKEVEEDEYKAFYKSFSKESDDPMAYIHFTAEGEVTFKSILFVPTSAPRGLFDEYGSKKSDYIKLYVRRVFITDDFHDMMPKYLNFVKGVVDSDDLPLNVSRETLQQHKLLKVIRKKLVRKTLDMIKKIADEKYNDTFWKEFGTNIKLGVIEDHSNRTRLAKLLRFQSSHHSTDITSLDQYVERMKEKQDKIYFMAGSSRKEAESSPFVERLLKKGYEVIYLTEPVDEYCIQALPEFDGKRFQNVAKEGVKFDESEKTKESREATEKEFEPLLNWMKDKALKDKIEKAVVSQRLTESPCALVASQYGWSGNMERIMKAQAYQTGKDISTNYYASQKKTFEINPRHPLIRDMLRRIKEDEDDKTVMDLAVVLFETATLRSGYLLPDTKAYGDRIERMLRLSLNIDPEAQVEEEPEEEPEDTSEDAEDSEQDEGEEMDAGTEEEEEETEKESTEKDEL

COC(=O)[C@@H](Oc1nc(OC)cc(OC)n1)C(C)C [GPM1, (S)-methyl 2-(4,6-dimethoxypyrimidin-2-yloxy)-3-methylbutanoate]
ratio of mice which died by lupus [1]: significantly reduced | pIC50 ([2]; dose-dependent effect, ELISA, read-out: 50% inhibition of the interaction of gp96 and AIMP1): ~7.52 | inhibition at 0.1 µM ([2]; read-out: Inhibition rate (at 100 nM; %)): 95%
